Target: hCINAP (Homo sapiens, UniProt Q9Y3D8)
Assay: coupled PK/LDH adenylate kinase assay
Type: biochemical

Sequence of hCINAP (Q9Y3D8 whole entry): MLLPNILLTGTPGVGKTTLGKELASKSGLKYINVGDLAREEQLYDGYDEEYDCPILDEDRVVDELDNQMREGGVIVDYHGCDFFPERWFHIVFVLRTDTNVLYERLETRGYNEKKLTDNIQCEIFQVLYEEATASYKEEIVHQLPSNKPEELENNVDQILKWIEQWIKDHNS

IC50: 0.027 ± 0.00293 µM
SMILES: Nc1ncnc2c1ncn2[C@@H]1O[C@H](COP(=O)(O)OP(=O)(O)OP(=O)(O)OP(=O)(O)OP(=O)(O)OC[C@H]2O[C@@H](n3cnc4c(N)ncnc43)[C@H](O)[C@@H]2O)[C@@H](O)[C@H]1O [AP5A]

From paper PMC3839082 (Proteins, 2011)
